Test results taken from the supplement of paper PMC11451515.

System: P12-Ichikawa
Assay: cell viability relative to DMSO control; higher = less cytotoxic
Conditions: 48 h
Outline: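 Before seeding, each leukemia line was adapted for at least four passages in each medium. NOMO1 or SEM cells (500 cells/well) and P12-Ichikawa cells (1000 cells/well) went into 1536-well plates at 5 μl, then received library compounds in DMSO by pin dosing across 11 threefold concentrations, 47 μM to 0.79 nM. Readout was CellTiter-Glo One luminescence after 48 h at 37°C, and viability is given as a per-plate percentage of DMSO wells, with cell-free wells as background.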

[1] = HPLM + 10% dialyzed FBS, 0.000781 µM
[2] = HPLM + 10% dialyzed FBS, 0.00234 µM
[3] = HPLM + 10% dialyzed FBS, 0.00702 µM
[4] = HPLM + 10% dialyzed FBS, 0.0211 µM
[5] = HPLM + 10% dialyzed FBS, 0.0632 µM
[6] = HPLM + 10% dialyzed FBS, 0.19 µM
[7] = HPLM + 10% dialyzed FBS, 0.569 µM
[8] = HPLM + 10% dialyzed FBS, 1.71 µM
[9] = HPLM + 10% dialyzed FBS, 5.12 µM
[10] = HPLM + 10% dialyzed FBS, 15.4 µM
[11] = HPLM + 10% dialyzed FBS, 46.1 µM
[12] = RPMI 5 mM glucose + 10% FBS, 0.000781 µM
[13] = RPMI 5 mM glucose + 10% FBS, 0.00234 µM
[14] = RPMI 5 mM glucose + 10% FBS, 0.00702 µM
[15] = RPMI 5 mM glucose + 10% FBS, 0.0211 µM
[16] = RPMI 5 mM glucose + 10% FBS, 0.0632 µM
[17] = RPMI 5 mM glucose + 10% FBS, 0.19 µM
[18] = RPMI 5 mM glucose + 10% FBS, 0.569 µM
[19] = RPMI 5 mM glucose + 10% FBS, 1.71 µM
[20] = RPMI 5 mM glucose + 10% FBS, 5.12 µM
[21] = RPMI 5 mM glucose + 10% FBS, 15.4 µM
[22] = RPMI 5 mM glucose + 10% FBS, 46.1 µM
[23] = RPMI 5 mM glucose + 10% dialyzed FBS, 0.000781 µM
[24] = RPMI 5 mM glucose + 10% dialyzed FBS, 0.00234 µM
[25] = RPMI 5 mM glucose + 10% dialyzed FBS, 0.00702 µM
[26] = RPMI 5 mM glucose + 10% dialyzed FBS, 0.0211 µM
[27] = RPMI 5 mM glucose + 10% dialyzed FBS, 0.0632 µM
[28] = RPMI 5 mM glucose + 10% dialyzed FBS, 0.19 µM
[29] = RPMI 5 mM glucose + 10% dialyzed FBS, 0.569 µM
[30] = RPMI 5 mM glucose + 10% dialyzed FBS, 1.71 µM
[31] = RPMI 5 mM glucose + 10% dialyzed FBS, 5.12 µM
[32] = RPMI 5 mM glucose + 10% dialyzed FBS, 15.4 µM
[33] = RPMI 5 mM glucose + 10% dialyzed FBS, 46.1 µM

Structure (SMILES)	cell viability [1] [%]	cell viability [2] [%]	cell viability [3] [%]	cell viability [4] [%]	cell viability [5] [%]	cell viability [6] [%]	cell viability [7] [%]	cell viability [8] [%]	cell viability [9] [%]	cell viability [10] [%]	cell viability [11] [%]	cell viability [12] [%]	cell viability [13] [%]	cell viability [14] [%]	cell viability [15] [%]	cell viability [16] [%]	cell viability [17] [%]	cell viability [18] [%]	cell viability [19] [%]	cell viability [20] [%]	cell viability [21] [%]	cell viability [22] [%]	cell viability [23] [%]	cell viability [24] [%]	cell viability [25] [%]	cell viability [26] [%]	cell viability [27] [%]	cell viability [28] [%]	cell viability [29] [%]	cell viability [30] [%]	cell viability [31] [%]	cell viability [32] [%]	cell viability [33] [%]
CC(Oc1ccc(O)cc1)(P(=O)(O)O)P(=O)(O)O	102	101	94.9	100	101	99.2	90.3	94.9	85.3	67.8	46.7	92.5	97.8	95	93.7	100	98.2	82.2	87.2	81.5	42.8	33.6	97.1	97.5	88.6	98.4	107	101	90.7	93.1	87.6	47.2	34.6
CC(C)[C@H](CO)Nc1nc(Nc2ccc(C(=O)O)c(Cl)c2)c2ncn(C(C)C)c2n1	119	120	116	121	119	115	96.1	103	87.1	96.3	92.9	111	124	117	134	127	130	95.7	88.4	89.2	93	69.9	119	122	130	111	120	129	102	94	87.1	102	73.7
CN(C)c1nc(N(C)C)nc(N(C)C)n1	108	108	104	104	101	103	94.4	94.3	89.6	94	83.5	103	100	98.3	95.9	90.5	93.9	98.8	87.2	87.9	89.9	93.2	90.3	99.9	95.5	99.6	97.1	91.6	91.9	85	87.9	90.7	86.8
CN(C)c1ccc(C(=O)NCCCCCCC(=O)NO)cc1	107	102	114	104	110	111	102	44	1.14	0.537	1.62	101	104	109	110	116	108	99.5	46.9	1.46	0.517	1.9	94.9	105	113	116	122	121	98.6	25.4	1.41	0.539	1.68
Cc1ccccc1C(C(=O)NC1CCCCC1)N(C(=O)CNc1ccc(C#N)cc1)c1cccc(F)c1 (stereo not given)	111	113	107	105	114	103	106	104	102	104	99.2	73.9	104	110	112	112	102	102	102	99	95.6	94.6	64.4	110	110	112	104	92.7	103	92.5	91.3	98.8	98.6
